Experimental data taken from patent publication US20240199558A1, “2,4,6-TRISUBSTITUTED 1,3,5-TRIAZINES AS MODULATORS OF CX3CR1” (ASTRAZENECA AB, priority 2022, published 2024).
pIC50: −log10 of the molar value.

target: CX3CR1 (Homo sapiens (Human), UniProt P49238); experiment: hCX3CR1 [3H]-AZD8797 competitive binding assay (filter); details: CHO-hCX3CR1 membranes, 2 nM [3H]-AZD8797
Experimental: hCX3CR1 [^3H]-AZD8797 Competitive Binding Assay (Filter)
CHO-hCX3CR1 membranes (9 μg per well) together with 2 nM [^3H]-AZD8797 and different concentrations of competitor compound were incubated in 25 mM HEPES (pH 7.4), 10 mM MgCl2, 1 mM CaCl2) and 0.5% BSA in a Corning polystyrene flat-bottom 96-well plate. The plate was incubated for 2 h at room temperature before free radioligand was separated from bound by vacuum filtration on to a Multiscreen HTS+HiFlow FB (Millipore) filter plate, using a Biomek FX (Beckman Coulter). The filter plate was washed in ice-cold 25 mM HEPES (pH 7.4), 5 mM MgCl2, 1 mM CaCl2) and 500 mM NaCl and dried at 50° C. for 1 h. Scintillation cocktail, Optiphase Supermix (PerkinElmer) was added to each well and the radioactivity was measured using a MicroBeta Trilux reader (PerkinElmer). The DMSO concentration was held constant at 1%.

Chain of CX3CR1 (P49238 whole entry): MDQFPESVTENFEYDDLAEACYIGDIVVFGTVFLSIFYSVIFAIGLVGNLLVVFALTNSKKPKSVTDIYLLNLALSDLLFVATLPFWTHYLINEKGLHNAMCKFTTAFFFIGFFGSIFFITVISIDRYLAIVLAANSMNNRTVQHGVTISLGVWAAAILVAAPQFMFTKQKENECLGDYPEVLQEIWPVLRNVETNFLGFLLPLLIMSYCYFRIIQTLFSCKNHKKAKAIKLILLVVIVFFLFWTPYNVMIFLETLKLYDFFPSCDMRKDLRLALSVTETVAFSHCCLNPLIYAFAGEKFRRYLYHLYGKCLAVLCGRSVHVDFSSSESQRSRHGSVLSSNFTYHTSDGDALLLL

Row | Structure (SMILES) | pIC50
1 | CC(C)C[C@H](CO)Nc1nc(CC(C)c2ccc(-n3ccnn3)cc2)nc(NS(C)(=O)=O)n1 (stereo partly drawn) [Example 64, N-(4-(2-(4-(1H-1,2,3-Triazol-1-yl)phenyl)propyl)-6-(((R)-1-hydroxy-4-methylpentan-2-yl)amino)-1,3,5-triazin-2-yl)methanesulfonamide] | 6.52
2 | Cc1ccc(C(C)Cc2nc(N[C@@H](CO)CC(C)C)nc(NS(C)(=O)=O)n2)cc1C (stereo partly drawn) [Example 70, N-(4-(2-(3,4-Dimethylphenyl)propyl)-6-(((R)-1-hydroxy-4-methylpentan-2-yl)amino)-1,3,5-triazin-2-yl)methanesulfonamide] | 6.53
3 | CC(C)C[C@H](CO)Nc1nc(CC(C)c2ccc(C(C)(F)F)cc2)nc(NS(C)(=O)=O)n1 (stereo partly drawn) [Example 71, N-(4-(2-(4-(1,1-Difluoroethyl)phenyl)propyl)-6-(((R)-1-hydroxy-4-methylpentan-2-yl)amino)-1,3,5-triazin-2-yl)methanesulfonamide] | 6.48
4 | COc1cccc(C(C)Cc2nc(N[C@@H](CO)CC(C)C)nc(NS(C)(=O)=O)n2)c1 (stereo partly drawn) [Example 92, N-(4-(((R)-1-Hydroxy-4-methylpentan-2-yl)amino)-6-(2-(3-methoxyphenyl)propyl)-1,3,5-triazin-2-yl)methanesulfonamide] | 6.95
5 | COc1ccc(C(C)Cc2nc(N[C@@H](CO)CC(C)C)nc(NS(C)(=O)=O)n2)cc1OC (stereo partly drawn) [Example 96] | 6.83
6 | COc1cccc(C(C)Cc2nc(N[C@@H](CO)CC(C)C)nc(NS(C)(=O)=O)n2)c1F (stereo partly drawn) [Example 99, N-(4-(2-(2-Fluoro-3-methoxyphenyl)propyl)-6-(((R)-1-hydroxy-4-methylpentan-2-yl)amino)-1,3,5-triazin-2-yl)methanesulfonamide] | 7.11
7 | CC(C)C[C@H](CO)Nc1nc(CC(C)c2ccc3c(c2)oc(=O)n3C)nc(NS(C)(=O)=O)n1 (stereo partly drawn) [Example 100, N-(4-(((R)-1-Hydroxy-4-methylpentan-2-yl)amino)-6-(2-(3-methyl-2-oxo-2,3-dihydrobenzo[d]oxazol-6-yl)propyl)-1,3,5-triazin-2-yl)methanesulfonamide] | 6.80
8 | CC(C)C[C@H](CO)Nc1nc(CC(C)c2cccc(CN3OCCC3=O)c2)nc(NS(C)(=O)=O)n1 (stereo partly drawn) [Example 101, N-(4-(((R)-1-Hydroxy-4-methylpentan-2-yl)amino)-6-(2-(3-((3-oxoisoxazolidin-2-yl)methyl)phenyl)propyl)-1,3,5-triazin-2-yl)methanesulfonamide] | 6.27
9 | CC(C)C[C@H](CO)Nc1nc(CC(C)c2ccc(C3CCOCC3)cc2)nc(NS(C)(=O)=O)n1 (stereo partly drawn) [Example 102, N-(4-(((R)-1-Hydroxy-4-methylpentan-2-yl)amino)-6-(2-(4-(tetrahydro-2H-pyran-4-yl)phenyl)propyl)-1,3,5-triazin-2-yl)methanesulfonamide] | 7.06
10 | CC(C)C[C@H](CO)Nc1nc(CC(C)c2cccc3cccnc23)nc(NS(C)(=O)=O)n1 (stereo partly drawn) [Example 103, N-(4-(((R)-1-Hydroxy-4-methylpentan-2-yl)amino)-6-(2-(quinolin-8-yl)propyl)-1,3,5-triazin-2-yl)methanesulfonamide] | 7.77
11 | CC(C)C[C@H](CO)Nc1nc(CC(C)c2cc(O)c3c(c2)CCCC3)nc(NS(C)(=O)=O)n1 (stereo partly drawn) [Example 104] | 7.42
12 | CC(C)C[C@H](CO)Nc1nc(CC(C)c2cc(Cl)ccc2O)nc(NS(C)(=O)=O)n1 (stereo partly drawn) [Example 107, N-(4-(2-(5-Chloro-2-hydroxyphenyl)propyl)-6-(((R)-1-hydroxy-4-methylpentan-2-yl)amino)-1,3,5-triazin-2-yl)methanesulfonamide] | 6.95
13 | CC(C)C[C@H](CO)Nc1nc(CC(C)c2cc(F)c(CO)c(F)c2)nc(NS(C)(=O)=O)n1 (stereo partly drawn) [Example 110, N-(4-(2-(3,5-Difluoro-4-(hydroxymethyl)phenyl)propyl)-6-(((R)-1-hydroxy-4-methylpentan-2-yl)amino)-1,3,5-triazin-2-yl)methanesulfonamide] | 7.47
14 | Cc1cc(C(C)Cc2nc(N[C@@H](CO)CC(C)C)nc(NS(C)(=O)=O)n2)ccc1F (stereo partly drawn) [Example 111, N-(4-(2-(4-Fluoro-3-methylphenyl)propyl)-6-(((R)-1-hydroxy-4-methylpentan-2-yl)amino)-1,3,5-triazin-2-yl)methanesulfonamide] | 6.41
15 | COc1ccc(C(C)Cc2nc(N[C@@H](CO)CC(C)C)nc(NS(C)(=O)=O)n2)cc1 (stereo partly drawn) [Example 113, N-(4-(((R)-1-Hydroxy-4-methylpentan-2-yl)amino)-6-(2-(4-methoxyphenyl)propyl)-1,3,5-triazin-2-yl)methanesulfonamide] | 6.74

More lines, now with the values ahead:

Row | pIC50 | Structure (SMILES)
16 | 6.47 | CC(C)C[C@H](CO)Nc1nc(CC(C)c2ccc(C#N)cc2)nc(NS(C)(=O)=O)n1 (stereo partly drawn) [Example 68, N-(4-(2-(4-Cyanophenyl)propyl)-6-(((R)-1-hydroxy-4-methylpentan-2-yl)amino)-1,3,5-triazin-2-yl)methanesulfonamide]
17 | 6.08 | COCc1ccc(C(C)Cc2nc(N[C@@H](CO)CC(C)C)nc(NS(C)(=O)=O)n2)cc1 (stereo partly drawn) [Example 69, N-(4-(((R)-1-Hydroxy-4-methylpentan-2-yl)amino)-6-(2-(4-(methoxymethyl)phenyl)propyl)-1,3,5-triazin-2-yl)methanesulfonamide]
18 | 6.47 | CC(C)C[C@H](CO)Nc1nc(CC(C)c2cccc(Cl)c2)nc(NS(C)(=O)=O)n1 (stereo partly drawn) [Example 72, N-(4-(2-(3-Chlorophenyl)propyl)-6-(((R)-1-hydroxy-4-methylpentan-2-yl)amino)-1,3,5-triazin-2-yl)methanesulfonamide]
19 | 6.20 | CC(=O)N(C)c1ccc(C(C)Cc2nc(N[C@@H](CO)CC(C)C)nc(NS(C)(=O)=O)n2)cc1 (stereo partly drawn) [Example 73, N-(4-(1-(4-(((R)-1-Hydroxy-4-methylpentan-2-yl)amino)-6-(methylsulfonamido)-1,3,5-triazin-2-yl)propan-2-yl)phenyl)-N-methylacetamide]
20 | 6.03 | CC(C)C[C@H](CO)Nc1nc(CC(C)c2ccc(C(F)(F)F)cc2)nc(NS(C)(=O)=O)n1 (stereo partly drawn) [Example 74, N-(4-(((R)-1-Hydroxy-4-methylpentan-2-yl)amino)-6-(2-(4-(trifluoromethyl)phenyl)propyl)-1,3,5-triazin-2-yl)methanesulfonamide]
21 | 6.68 | CC(C)C[C@H](CO)Nc1nc(CC(C)c2c[nH]c3ncccc23)nc(NS(C)(=O)=O)n1 (stereo partly drawn) [Example 93, N-(4-(2-(1H-Pyrrolo[2,3-b]pyridin-3-yl)propyl)-6-(((R)-1-hydroxy-4-methylpentan-2-yl)amino)-1,3,5-triazin-2-yl)methanesulfonamide]
22 | 6.99 | Cc1cc(C(C)Cc2nc(N[C@@H](CO)CC(C)C)nc(NS(C)(=O)=O)n2)ccn1 (stereo partly drawn) [Example 94, N-(4-(((R)-1-Hydroxy-4-methylpentan-2-yl)amino)-6-(2-(2-methylpyridin-4-yl)propyl)-1,3,5-triazin-2-yl)methanesulfonamide]
23 | 6.18 | CC(C)C[C@H](CO)Nc1nc(CC(C)c2ccc(CN3CCOCC3)cc2)nc(NS(C)(=O)=O)n1 (stereo partly drawn) [Example 95, N-(4-(((R)-1-Hydroxy-4-methylpentan-2-yl)amino)-6-(2-(4-(morpholinomethyl)phenyl)propyl)-1,3,5-triazin-2-yl)methanesulfonamide]
24 | 7.05 | COc1ccc(C(C)Cc2nc(N[C@@H](CO)CC(C)C)nc(NS(C)(=O)=O)n2)c2cccnc12 (stereo partly drawn) [Example 97, N-(4-(((R)-1-Hydroxy-4-methylpentan-2-yl)amino)-6-(2-(8-methoxyquinolin-5-yl)propyl)-1,3,5-triazin-2-yl)methanesulfonamide]
25 | 6.37 | CCOc1ccc(C(C)Cc2nc(N[C@@H](CO)CC(C)C)nc(NS(C)(=O)=O)n2)cc1Cl (stereo partly drawn) [Example 98, N-(4-(2-(3-Chloro-4-ethoxyphenyl)propyl)-6-(((R)-1-hydroxy-4-methylpentan-2-yl)amino)-1,3,5-triazin-2-yl)methanesulfonamide]
26 | 6.91 | CC(C)C[C@H](CO)Nc1nc(CC(C)c2cccc(C3COC3)c2)nc(NS(C)(=O)=O)n1 (stereo partly drawn) [Example 105, N-(4-(((R)-1-Hydroxy-4-methylpentan-2-yl)amino)-6-(2-(3-(oxetan-3-yl)phenyl)propyl)-1,3,5-triazin-2-yl)methanesulfonamide]
27 | 7.62 | Cc1c2ccc(C(C)Cc3nc(N[C@@H](CO)CC(C)C)nc(NS(C)(=O)=O)n3)cc2nn1C (stereo partly drawn) [Example 106, N-(4-(2-(2,3-Dimethyl-2H-indazol-6-yl)propyl)-6-(((R)-1-hydroxy-4-methylpentan-2-yl)amino)-1,3,5-triazin-2-yl)methanesulfonamide]
28 | 7.24 | CC(C)C[C@H](CO)Nc1nc(CC(C)c2ccc3c(c2)OCO3)nc(NS(C)(=O)=O)n1 (stereo partly drawn) [Example 108, N-(4-(2-(Benzo[d][1,3]dioxol-5-yl)propyl)-6-(((R)-1-hydroxy-4-methylpentan-2-yl)amino)-1,3,5-triazin-2-yl)methanesulfonamide]
29 | 7.08 | CC(C)C[C@H](CO)Nc1nc(CC(C)c2cccc3c(=O)n(C)cnc23)nc(NS(C)(=O)=O)n1 (stereo partly drawn) [Example 109, N-(4-(((R)-1-Hydroxy-4-methylpentan-2-yl)amino)-6-(2-(3-methyl-4-oxo-3,4-dihydroquinazolin-8-yl)propyl)-1,3,5-triazin-2-yl)methanesulfonamide]
30 | 7.54 | CC(C)C[C@H](CO)Nc1nc(CC(C)c2ccc(N)cc2)nc(NS(C)(=O)=O)n1 (stereo partly drawn) [Example 112, N-(4-(2-(4-Aminophenyl)propyl)-6-(((R)-1-hydroxy-4-methylpentan-2-yl)amino)-1,3,5-triazin-2-yl)methanesulfonamide]
